Experimental data: patent US20020058077A1, “Cancer chemotherapeutical and chemopreventive agent” (priority 2000, published 2002)
*1 amine or outer side, *2 acyl side, *3 side chain or, on linkers, in order; H or OH if unused. Where a SMILES comes first, the peptide text is derived from it. Bridges are numbered along the chain shown (N, C = ends). Roman numbers before positions name the chains, in order. [ ]: non-standard residue; d: D form. Actinocin(9to1) = Cc1c2oc3c(C)ccc(C(=O)[*:1])c3nc-2c(C(=O)[*:2])c(N)c1=O; NMeV = CN[C@H](C(=O)O)C(C)C; Sar = CNCC(=O)O

Columns and labels:
[1] = tested on: COX-2; assay: RT-PCR analysis of COX-2 mRNA in TNF-α treated CNE1 cells; settings: Act D 5 μg/ml × 30 min; TNF-α 15 ng/ml × 6 h
Description: (§1) TNF-α (final concentration 15 ng/ml) was used as the positive stimulus to promote NF-κB activation in cultured cells.
RNA extraction was carried out using a total RNA extraction kit (TRIzol, Life Technologies). Briefly, cells were collected by scrapping after various treatments and washed with cold PBS once before they were lysed in the TRIzol reagent. […] Finally the RNA samples were dissolved in DEPC-H2O and quantified (1 A260=40 μg/ml). Five micrograms of total RNA from each sample were subjected to reverse transcription using Superscript II reverse transcriptase (Life Technologies) in a total volume of 50 μl. For PCR, all the amplification reactions were carried out in 20 μl which included 200 pmol of each primers, 200 μM of each dNTPs, and 0.5 units of DyNAzyme II. The PCR was performed for 30 cycles, using a program of 95° C. for 30 sec, 57° C. for 30 sec, and 72° C. for 30 sec, followed by a 10 min extension at 72° C., in a Biometra T-gradient Thermal Cycler. […] The PCR conditions were optimised to achieve exponential amplification in which the PCR product formation is proportional to the starting cDNA.

[2] = tested on: CNE1 cells; settings: for apoptotic cell death in TNF-α treated cells after pretreatment: PDTC 25 μM, Act D 5 μg/ml, CHX 5 μg/ml or NS398 10 μM × 30 min
Description: as §1
Apoptosis was determined by the following assays: (i) cell morphological alterations examined under an inverted microscope, (ii) PARP cleavage determined by western blot, and (iii) TUNEL assay which was analysed using both flow cytometry and confocal microscope (Shen et al., 2000), in both attached and detached cells after various treatments.

[3] = tested on: NF-κB; assay: NF-κB luciferase reporter gene assay in transfected CNE1 cells; format: cell-based, human; settings: PDTC 25 μM, Act D 5 μg/ml or CHX 5 μg/ml × 30 min; TNF-α 15 ng/ml × 24 h; order PDTC <Act D <CHX
Description: The pNF-κB-luc vector and the negative control pTAL-luc vector were purchased as part of the Mercury Pathway Profiling Luciferase System from Clontech Laboratories. […] The transient transfection of the above plasmids into cultured CNE1 cells were performed using TransFast™ Transfection Reagent (Promega) according to the manufacturer's protocol. Briefly, when cells reached about 80% confluence in 24-well plates (approximately 10×10^4 cells per well in 0.5 ml culture medium), the growth medium from each well was removed by aspiration. […] After incubated for 1 h at 37° C., 300 μl of prewarmed complete medium was added into each well and incubated for 24 h. Transfected cells were then subjected to various treatments. The luciferase activity was measured in the cellular extracts using a luciferase assay kit (Promega). Following the treatment, the cell lysate was collected from each well after the addition of 1× cell culture lysis reagent (50 μl/well, Promega). The relative light units (RLU) were then determined in a luminometer (Lumi-one, Trans Orchid, Tampa, Fla.) for a total period of 15 sec after a 5 sec delay time.

[4] = tested on: COX-2; assay: COX-2 protein level in TNF-α treated CNE1 cells by western blot; settings: CHX 5 μg/ml × 30 min; TNF-α 15 ng/ml × 24 h
Description: as §1
Various cell extracts (cytosolic, nuclear or whole cell) were prepared as described earlier. Equal amounts (30 μg) of protein were separated on SDS-polyacrylamide gel in the Mini-PROTEAN II system (Bio-Rad). After electrophoresis, the protein was transferred onto a Hybond-C nitrocellulose membrane (Amersham) at 4° C. using the Mini Trans-Blot Module (Bio-Rad). The membrane was blocked overnight with 5% nonfat milk in TBST (10 mM Tris-HCl, pH 7.5, 100 mM NaCl, 0.1% Tween 20), and then incubated with various primary antibodies for 2 h at room temperature. After 5 washes with TBST, the membrane was exposed to respective secondary antibodies for 1 h. The blots were detected using the enhanced chemiluminescence method (Pierce).

[5] = tested on: PGE2 production; assay: PGE2 level released from CNE1 cells by enzyme immunoassay (EIA); format: cell-based, human
Description: The PGE2 level in the cell culture medium after various treatments was determined using an EIA kit (Cayman) according to protocol from the manufacturer. Each sample was assayed at two dilutions and each dilution in triplets. The results were presented as the fold of increase comparing to that of the control group.

[6] = Act D 5 μg/ml × 30 min pretreatment, then TNF-α 15 ng/ml × 24 h

For `Cc1c2oc3c(C)ccc(C(=O)N[C@@H]4C(=O)N[C@H](C(C)C)C(=O)N5CCC[C@H]5C(=O)N(C)CC(=O)N(C)[C@@H](C(C)C)C(=O)O[C@@H]4C)c3nc-2c(C(=O)N[C@@H]2C(=O)N[C@H](C(C)C)C(=O)N3CCC[C@H]3C(=O)N(C)CC(=O)N(C)[C@@H](C(C)C)C(=O)O[C@@H]2C)c(N)c1=O` [Act D, actinomycin D] (I: T[dV]P[Sar][NMeV] / II: T[dV]P[Sar][NMeV]; ester I:1-I:C, II:1-II:C; linker I:N-II:N via Actinocin(9to1)), the “COX-2 mRNA level” value [1] was “markedly reduced”, the PARP cleavage [2, 6] was “complete cleavage” and the detached apoptotic cells [2, 6] was roughly 100%. The “apoptotic cell death in TNF-α treated cells after pretreatment” value (“apoptotic cell death” for short) ([2]; then TNF-α 15 ng/ml × 24 h) was “severe apoptosis”.
With `C[C@@H]1C[C@@H]([C@H](O)CC2CC(=O)NC(=O)C2)C(=O)[C@@H](C)C1` [CHX, cycloheximide] the “NF-κB dependent transcription (luciferase)” value [3] was “capable of inhibiting”, the COX-2 protein level [4] was “Significant reduction” and the “apoptotic cell death” value ([2]; then TNF-α 15 ng/ml × 24 h) was “severe apoptosis”.
With `CS(=O)(=O)Nc1ccc([N+](=O)[O-])cc1OC1CCCCC1` [NS398] the PGE2 production ([5]; NS398 10 μM × 30 min, TNF-α 15 ng/ml × 24 h) was “completely abolished”, the “potency for the inhibition of PGE2 production compared with parthenolide” value ([5]; TNF-α treated CNE1 cells) was “higher potency” and the “apoptotic cell death” value ([2]; then TNF-α 15 ng/ml × 24 h) was “significantly enhanced”. For the same molecule, the “apoptosis induction compared with parthenolide” value ([2]; TNF-α treated CNE1 cells) was “less effective”.
